According to patent publication US20180148418A1, “AMIDO-SUBSTITUTED CYCLOHEXANE DERIVATIVES” (Bayer Pharma Aktiengesellschaft, priority 2015, published 2018):

Assays:
[1] = test system: HEK293 cells cotransfected with the FOP control vector; assay: HEK293 FOP assay (control reporter with non-functional TCF elements); assay type: cell-based; settings: Homo sapiens, 16 hours
Summary of the method: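 Compound series from 50 μM down to 15 nM, prediluted in DMSO then 50-fold into CAFTY buffer (pH 7.4, 2 mM Ca2+, 0.01% BSA), tested alongside TOP cells on a Geneticin-selected HEK293 FOP line whose TCF elements are replaced by a random sequence; recombinant human Wnt-3a applied at 2500-5 ng/ml.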

[2] = test system: wildtype Wnt signaling cascade; assay: HEK293 TOP assay (Super TopFlash luciferase reporter, Wnt-3a stimulated); assay type: cell-based; settings: Homo sapiens, HEK293, 16 h, HEK293 TOP reporter cells, Wnt3a at EC50, 16 hours
Summary of the method: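 Compound series (50 μM down to 15 nM, 3.16-fold) diluted from DMSO 50-fold into CAFTY buffer, pH 7.4, 2 mM Ca^2+, 0.01% BSA, applied to Wnt-3a-stimulated HEK293 TopFlash and FOP reporter lines in parallel. Cells seeded 10000/well 24 h before; luciferase signal measured.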

TNKS2 = target: T1, TNKS2 (Homo sapiens, UniProt Q9H2K2); assay: TNKS2 Assay B (auto-parsylation, [3H]-NAD+ SPA); assay type: biochemical; settings: 6 nM TNKS2, auto-parsylation, over night at room temperature
T1 construct: purchased BPS Bioscience, San Diego, USA 80572 (TNKS2 Histone Ribosylation Assay Kit)
T1 sequence (Q9H2K2 1-1166): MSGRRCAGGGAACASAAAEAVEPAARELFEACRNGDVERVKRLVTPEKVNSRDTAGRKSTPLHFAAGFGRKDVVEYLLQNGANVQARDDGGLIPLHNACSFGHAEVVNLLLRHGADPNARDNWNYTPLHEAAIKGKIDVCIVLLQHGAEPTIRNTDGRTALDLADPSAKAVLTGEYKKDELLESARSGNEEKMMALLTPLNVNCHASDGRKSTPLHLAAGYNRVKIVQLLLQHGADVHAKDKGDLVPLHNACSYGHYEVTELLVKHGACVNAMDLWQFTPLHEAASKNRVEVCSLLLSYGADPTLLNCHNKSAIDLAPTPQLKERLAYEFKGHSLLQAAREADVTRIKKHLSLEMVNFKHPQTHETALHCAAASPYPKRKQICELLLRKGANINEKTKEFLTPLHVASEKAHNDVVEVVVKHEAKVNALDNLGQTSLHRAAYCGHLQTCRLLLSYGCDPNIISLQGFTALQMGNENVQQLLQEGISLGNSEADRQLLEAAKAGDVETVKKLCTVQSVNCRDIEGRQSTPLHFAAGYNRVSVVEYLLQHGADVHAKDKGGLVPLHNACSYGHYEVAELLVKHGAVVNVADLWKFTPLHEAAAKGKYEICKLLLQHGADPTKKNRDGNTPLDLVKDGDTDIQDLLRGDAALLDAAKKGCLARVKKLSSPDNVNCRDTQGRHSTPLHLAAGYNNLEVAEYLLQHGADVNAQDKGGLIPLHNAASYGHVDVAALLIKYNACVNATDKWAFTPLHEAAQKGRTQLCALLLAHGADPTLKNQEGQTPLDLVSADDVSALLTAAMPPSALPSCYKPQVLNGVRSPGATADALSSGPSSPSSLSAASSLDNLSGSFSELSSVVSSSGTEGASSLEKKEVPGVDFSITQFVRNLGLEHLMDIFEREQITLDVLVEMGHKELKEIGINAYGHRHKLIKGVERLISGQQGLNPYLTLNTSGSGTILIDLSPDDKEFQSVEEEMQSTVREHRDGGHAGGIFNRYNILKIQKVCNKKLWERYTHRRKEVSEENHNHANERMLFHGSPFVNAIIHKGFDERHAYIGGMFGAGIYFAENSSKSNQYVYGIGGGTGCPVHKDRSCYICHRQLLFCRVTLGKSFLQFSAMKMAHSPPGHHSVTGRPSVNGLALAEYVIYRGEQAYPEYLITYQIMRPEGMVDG

IC50 [2] [nM]	IC50 (TNKS2) [nM]	SMILES	IC50 [1] [nM]
81	150	Cc1cc(C)n2ncc(C(=O)N[C@H]3CC[C@H](C(=O)Nc4ccc(F)cc4Cl)CC3)c2n1 [Example 44, N-{trans-4-[(2-chloro-4-fluorophenyl)carbamoyl]cyclohexyl}-5,7-dimethylpyrazolo[1,5-a]pyrimidine-3-carboxamide]	≥ 50000
160	130	O=C(N[C@H]1CC[C@H](C(=O)Nc2ccc(F)cc2Cl)CC1)c1cnc2cccnn12 [Example 45, N-{trans-4-[(2-chloro-4-fluorophenyl)carbamoyl]cyclohexyl}imidazo[1,2-b]pyridazine-3-carboxamide]	≥ 50000
97	25	CC(=O)c1cnc2c(C(=O)N[C@H]3CC[C@H](C(=O)Nc4ccc(F)cc4Cl)CC3)cnn2c1C [Example 46, 6-acetyl-N-{trans-4-[(2-chloro-4-fluorophenyl)carbamoyl]cyclohexyl}-7-methylpyrazolo[1,5-a]pyrimidine-3-carboxamide]	≥ 50000
390	420	O=C(N[C@H]1CC[C@H](C(=O)Nc2ccc(F)cc2Cl)CC1)c1cnc2ccc(Cl)nn12 [Example 47, 6-chloro-N-{trans-4-[(2-chloro-4-fluorophenyl)carbamoyl]cyclohexyl}imidazo[1,2-b]pyridazine-3-carboxamide]	16000
410	310	O=C(N[C@H]1CC[C@H](C(=O)Nc2ccc(F)cc2Cl)CC1)c1cnc2ccc(N3CCOCC3)nn12 [Example 48, N-{trans-4-[(2-chloro-4-fluorophenyl)carbamoyl]cyclohexyl}-6-(morpholin-4-yl)imidazo[1,2-b]pyridazine-3-carboxamide]	14000
680	130	CN1CCN(c2ccc3ncc(C(=O)N[C@H]4CC[C@H](C(=O)Nc5ccc(F)cc5Cl)CC4)n3n2)CC1 [Example 49, N-{trans-4-[(2-chloro-4-fluorophenyl)carbamoyl]cyclohexyl}-6-(4-methylpiperazin-1-yl)imidazo[1,2-b]pyridazine-3-carboxamide]	32000
350	170	COc1ccc2ncc(C(=O)N[C@H]3CC[C@H](C(=O)Nc4ccc(F)cc4Cl)CC3)n2n1 [Example 50, N-{trans-4-[(2-chloro-4-fluorophenyl)carbamoyl]cyclohexyl}-6-methoxyimidazo[1,2-b]pyridazine-3-carboxamide]	≥ 50000
290	31	O=C(N[C@H]1CC[C@H](C(=O)Nc2ccc(F)cc2Cl)CC1)c1cnc2ccc(N3CCCC3)nn12 [Example 51, N-{trans-4-[(2-chloro-4-fluorophenyl)carbamoyl]cyclohexyl}-6-(pyrrolidin-1-yl)imidazo[1,2-b]pyridazine-3-carboxamide]	≥ 50000
150	11	CN(C)c1ccc2ncc(C(=O)N[C@H]3CC[C@H](C(=O)Nc4ccc(F)cc4Cl)CC3)n2n1 [Example 52, N-{trans-4-[(2-chloro-4-fluorophenyl)carbamoyl]cyclohexyl}-6-(dimethylamino)imidazo[1,2-b]pyridazine-3-carboxamide]	40000
400	47	CNc1ccc2ncc(C(=O)N[C@H]3CC[C@H](C(=O)Nc4ccc(F)cc4Cl)CC3)n2n1 [Example 53, N-{trans-4-[(2-chloro-4-fluorophenyl)carbamoyl]cyclohexyl}-6-(methylamino)imidazo[1,2-b]pyridazine-3-carboxamide]	≥ 50000
1100	710	Cc1c(C(C)O)cnc2c(C(=O)N[C@H]3CC[C@H](C(=O)Nc4ccc(F)cc4Cl)CC3)cnn12 (stereo partly drawn) [Example 58, N-{trans-4-[(2-chloro-4-fluorophenyl)carbamoyl]cyclohexyl}-6-(1-hydroxyethyl)-7-methylpyrazolo[1,5-a]pyrimidine-3-carboxamide]	≥ 50000
